The record followed here is patent US9834558B2, “Substituted bridged urea analogs as sirtuin modulators” (GLAXOSMITHKLINE LLC, priority 2013, dated 2017).

Counter-ions that a name gives are not always drawn. Like-named read-outs stand apart in the source and are kept apart here.

The target of this experiment is T1, SIRT1 (Homo sapiens, UniProt Q96EB6).
T1 sequence (Q96EB6 1-747): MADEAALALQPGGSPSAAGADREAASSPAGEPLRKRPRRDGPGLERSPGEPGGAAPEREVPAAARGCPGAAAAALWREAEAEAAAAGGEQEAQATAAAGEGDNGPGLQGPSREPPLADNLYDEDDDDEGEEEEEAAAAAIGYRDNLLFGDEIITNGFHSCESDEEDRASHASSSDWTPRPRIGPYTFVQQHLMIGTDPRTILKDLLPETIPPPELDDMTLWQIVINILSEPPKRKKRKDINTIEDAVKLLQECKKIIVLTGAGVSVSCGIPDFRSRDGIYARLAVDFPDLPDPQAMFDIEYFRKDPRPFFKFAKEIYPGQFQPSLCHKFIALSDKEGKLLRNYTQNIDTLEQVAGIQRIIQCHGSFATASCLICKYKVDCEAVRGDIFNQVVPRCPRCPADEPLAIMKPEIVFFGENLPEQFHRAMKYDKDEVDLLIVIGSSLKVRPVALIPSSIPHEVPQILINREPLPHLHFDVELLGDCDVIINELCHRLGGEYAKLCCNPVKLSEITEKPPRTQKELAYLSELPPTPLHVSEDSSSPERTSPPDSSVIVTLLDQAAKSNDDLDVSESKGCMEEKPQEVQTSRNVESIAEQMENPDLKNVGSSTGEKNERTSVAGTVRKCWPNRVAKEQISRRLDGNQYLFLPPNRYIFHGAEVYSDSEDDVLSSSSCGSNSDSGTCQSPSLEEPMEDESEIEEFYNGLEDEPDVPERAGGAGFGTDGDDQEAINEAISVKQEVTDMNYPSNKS
The experiment can be described thus: Trp mass spectrometry assay of SIRT1 activation. Conditions: for TRP Activity (EC1.5): EC1.5 = concentration that results in 150% activation of SIRT1. It is filed as biochemical. An outline of the steps: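 N-terminal His-tagged human SIRT1 (10 nM, E. coli BL21(DE3)) with 0.5 μM Ac-RHKK(Ac)W-NH2 peptide and 120 μM βNAD+, 25 min at 25 °C in HEPES pH 7.5, formic acid stop. OAADPR or deacetylated peptide quantified by mass spectrometry; EC1.5 (50% activity increase over control) and Percent Maximum Activation reported.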

[1] abbreviates: Trp peptide assay, maximum activity relative to control (100%), read-out: TRP MAX RESP (percent maximum fold activation).
Where [2] appears, read: Trp mass spectrometry assay, EC1.5 = concentration of test compound that results in 150% activation of SIRT1.
[3] abbreviates: concentration giving 150% activation of SIRT1, Trp peptide substrate.

Turning to `O=C(Nc1ccnc(OC[C@H](O)CO)n1)N1c2nc(-c3cccc(C(F)(F)F)c3)ccc2N2CC[C@H]1C2` [(9S)-N-{2-[(2R)-2,3-dihydroxypropoxy]pyrimidin-4-yl}-5-[3-(trifluoromethyl)phenyl]-1,6,8-triazatricyclo[7.2.1.0 {2,7}]dodeca-2(7),3,5-triene-8-carboxamide], the “TRP Activity (EC1.5)” value (Trp peptide assay) is “A (A (EC1.5<1 μM))”. Moreover, the Emax under setting [1] is above 150%. For the molecule `Cc1ccc(-c2ccc3c(n2)N(C(=O)Nc2cccnc2)[C@H]2CCCN3C2)cn1` [Example 514], the “Tryp AVG EC1.5 (μM)” value under setting [2] was “B (B (EC1.5 1-25 μM))”. For the molecule `Cc1cc(-c2ccc3c(n2)N(C(=O)N2CCO[C@@H](C)C2)[C@H]2CCN3C2)ccn1` [(9S)-8-{[(2S)-2-methylmorpholin-4-yl]carbonyl}-5-(2-methylpyridin-4-yl)-1,6,8-triazatricyclo[7.2.1.0 {2,7}]dodeca-2(7),3,5-triene hydrochloride], for the setting “Trp peptide assay”, the “TRP Activity (EC1.5)” value is “C (C (EC1.5>25 μM))”. The Emax under setting [1] was below 150%. Take `Cc1cc(-c2ccc3c(n2)N(C(=O)Nc2ncnc4[nH]nnc24)[C@H]2CCN3C2)ccn1` [(9S)-5-(2-methylpyridin-4-yl)-N-{3H-[1,2,3]triazolo[4,5-d]pyrimidin-7-yl}-1,6,8-triazatricyclo[7.2.1.0^{2,7}]dodeca-2,4,6-triene-8-carboxamide]: for the setting “Trp peptide assay”, the “TRP Activity (EC1.5)” value is “C (C (EC1.5>25 μM))”. The Emax under setting [1] was below 150%. `O=C(Nc1cnccn1)N1c2nc(-c3ccc(Cl)c(Cl)c3)ccc2N2CC[C@H]1C2` [Example 461]: the “Tryp AVG EC1.5 (μM)” value under setting [2] is given as “A (A (EC1.5<1 μM))”. With `Cc1cc(-c2ccc3c(n2)N(C(=O)Nc2nc(C)c(C)s2)[C@H]2CCCN3C2)ccn1` [(9S)-N-(dimethyl-1,3-thiazol-2-yl)-5-(2-methylpyridin-4-yl)-1,6,8-triazatricyclo[7.3.1.0 {2,7}]trideca-2(7),3,5-triene-8-carboxamide], the “TRP Activity (EC1.5)” value (Trp peptide assay) is on record as “A (A (EC1.5<1 μM))”. For the same molecule, the Emax under setting [1] was above 150%. As for `CC(C)C(=O)c1cccc(NC(=O)N2c3nc(-c4cccc(C(F)(F)F)c4)ccc3N3CC[C@H]2C3)c1` [Example 740], the “Tryp AVG EC1.5 (μM)” value under setting [3] is “A (A (EC1.5<1 μM))”. With `CCOc1cncc(NC(=O)N2c3nc(-c4ccnc(C)c4)ccc3N3CC[C@H]2C3)n1` [(9S)-N-(6-ethoxypyrazin-2-yl)-5-(2-methylpyridin-4-yl)-1,6,8-triazatricyclo[7.2.1.0 {2,7}]dodeca-2(7),3,5-triene-8-carboxamide], the “TRP Activity (EC1.5)” value (Trp peptide assay) is “A (A (EC1.5<1 μM))”. Besides, under setting [1], the Emax was above 150%. In the same order, the values of `Cc1cc(-c2ccc3c(n2)N(C(=O)Nc2cncnc2)[C@H]2CCCN3C2)ccn1` [(9S)-5-(2-methylpyridin-4-yl)-N-(pyrimidin-5-yl)-1,6,8-triazatricyclo[7.3.1.0 {2,7}]trideca-2(7),3,5-triene-8-carboxamide] are “B (B (EC1.5 1-25 μM))” and above 150%. As to `O=C(NCCCc1cccnc1)N1c2nc(-c3cccc(C(F)(F)F)c3)ccc2N2CC[C@H]1C2` [Example 674], the “Tryp AVG EC1.5 (μM)” value under setting [3] was “B (B (EC1.5 1-25 μM))”. For the molecule `O=C(Nc1cccnn1)N1c2nc(-c3cncc(C(F)(F)F)c3)ccc2N2CCC[C@H]1C2` [Example 412], where the note is “Trp mass spectrometry assay, concentration of test compound giving 150% activation of SIRT1”, the “Tryp AVG EC1.5 (μM)” value is “A (A (EC1.5<1 μM))”. With `Cc1cc(-c2ccc3c(n2)N(C(=O)Nc2cccnn2)[C@H]2CCN3C2)ccn1` [(9S)-5-(2-methylpyridin-4-yl)-N-(pyridazin-3-yl)-1,6,8-triazatricyclo[7.2.1.0 {2,7}]dodeca-2(7),3,5-triene-8-carboxamide], the “TRP Activity (EC1.5)” value (Trp peptide assay) was “B (B (EC1.5 1-25 μM))”. For the same molecule, the Emax under setting [1] is above 150%. As for `O=C(Nc1cccnc1)N1c2nc(-c3cccc(C(F)(F)F)c3)ccc2N2CCC1CC2` [Example 485], under setting [2], the “Tryp AVG EC1.5 (μM)” value is “A (A (EC1.5<1 μM))”.

Regarding `O=C(Nc1cncc(Br)c1)N1c2nc(-c3cccc(C(F)(F)F)c3)ccc2N2CC[C@H]1C2` [Example 542], the “Tryp AVG EC1.5 (μM)” value under setting [2] is “A (A (EC1.5<1 μM))”. Regarding `O=C1OC2(c3ccc(O)cc3Oc3cc(O)ccc32)c2ccc(NC(=S)NCc3cn(C4=CC(NC(=O)N5c6nc(-c7cccc(C(F)(F)F)c7)ccc6N6CC[C@H]5C6)CC=C4)nn3)cc21` (some centres unmarked) [Example 608], the “Tryp AVG EC1.5 (μM)” value under setting [2] is given as “C (C (EC1.5>25 μM))”. Also, under “Trp mass spectrometry assay, percent maximum fold activation of SIRT1, read-out: Tryp % Fold Act”, the Emax is below 150%. In the case of `O=C(Nc1cncc(F)c1)N1c2nc(-c3ccnc(N4CC[C@@H](F)C4)c3)ccc2N2CC[C@H]1C2` [Example 464], under setting [2], the “Tryp AVG EC1.5 (μM)” value is “B (B (EC1.5 1-25 μM))”. Take `O=C(Nc1cccc(C(F)(F)F)c1)N1c2nc(-c3cccc(C(F)(F)F)c3)ccc2N2CC[C@H]1C2` [Example 617]: under setting [2], the “Tryp AVG EC1.5 (μM)” value is “A (A (EC1.5<1 μM))”. For `COc1cncc(NC(=O)N2c3nc(-c4ccnc(C)c4)ccc3N3CC[C@H]2C3)n1` [Example 499], the “Tryp AVG EC1.5 (μM)” value under setting [2] was “A (A (EC1.5<1 μM))”. For `Cc1nc(NC(=O)N2c3nc(-c4cncc(C(F)(F)F)c4)ccc3N3CCC[C@H]2C3)sc1C` [Example 427], under setting [2], the “Tryp AVG EC1.5 (μM)” value is “A (A (EC1.5<1 μM))”. Turning to `O=C(Nc1ccnc(O[C@@H]2CCOC2)n1)N1c2nc(-c3cccc(C(F)(F)F)c3)ccc2N2CC[C@H]1C2` [(9S)-N-{2-[(3R)-oxolan-3-yloxy]pyrimidin-4-yl}-5-[3-(trifluoromethyl)phenyl]-1,6,8-triazatricyclo[7.2.1.0 {2,7}]dodeca-2(7),3,5-triene-8-carboxamide], for the setting “Trp peptide assay”, the “TRP Activity (EC1.5)” value is listed as “A (A (EC1.5<1 μM))”. Further, the Emax under setting [1] is above 150%. On to `Cc1nc(NC(=O)N2c3nc(-c4cncc(F)c4)ccc3N3CCC2CC3)sc1C` [Example 577], for which, under setting [2], the “Tryp AVG EC1.5 (μM)” value was “B (B (EC1.5 1-25 μM))”. In the case of `Cc1cc(-c2ccc3c(n2)N(C(=O)Nc2cncc(C(C)C)n2)[C@H]2CCN3C2)ccn1` [(9S)-5-(2-methylpyridin-4-yl)-N-[6-(propan-2-yl)pyrazin-2-yl]-1,6,8-triazatricyclo[7.2.1.0^2,7]dodeca-2(7),3,5-triene-8-carboxamide], for the setting “Trp peptide assay”, the “TRP Activity (EC1.5)” value is “A (A (EC1.5<1 μM))”. In addition, the Emax under setting [1] is above 150%. As for `O=C(Nc1nnc(-c2ccccn2)o1)N1c2nc(-c3cccc(C(F)(F)F)c3)ccc2N2CC[C@H]1C2` [Example 720], under setting [3], the “Tryp AVG EC1.5 (μM)” value is “A (A (EC1.5<1 μM))”. As for `Cc1cncc(-c2ccc3c(n2)N(C(=O)Nc2nc(C)c(C)s2)[C@H]2CCCN3C2)c1` [Example 507], the “Tryp AVG EC1.5 (μM)” value under setting [2] is recorded as “A (A (EC1.5<1 μM))”. Regarding `O=C(Nc1ccccn1)N1c2nc(N3CCOC(C(F)(F)F)C3)ccc2N2CC[C@H]1C2` (stereo partly drawn) [(9S)-N-(pyridin-2-yl)-5-[2-(trifluoromethyl)morpholin-4-yl]-1,6,8-triazatricyclo[7.2.1.0 {2,7}]dodeca-2(7),3,5-triene-8-carboxamide], the “TRP Activity (EC1.5)” value (Trp peptide assay) was “B (B (EC1.5 1-25 μM))”. The Emax under setting [1] is above 150%. For the molecule `COc1cc(NC(=O)N2c3nc(-c4cccnc4)ccc3N3CCC[C@H]2C3)ncn1` [Example 442], the “Tryp AVG EC1.5 (μM)” value under setting [2] is “B (B (EC1.5 1-25 μM))”.

`Cc1cc(-c2ccc3c(n2)N(C(=O)Nc2cccc4nccnc24)[C@H]2CCN3C2)ccn1` [(9S)-5-(2-methylpyridin-4-yl)-N-(quinoxalin-5-yl)-1,6,8-triazatricyclo[7.2.1.0 {2,7}]dodeca-2,4,6-triene-8-carboxamide]: the “TRP Activity (EC1.5)” value (Trp peptide assay) is listed as “A (A (EC1.5<1 μM))”. In addition, under setting [1], the Emax is above 150%.

On to `O=C(Nc1ccccn1)N1c2nc(-c3ccnc(C(F)(F)F)c3)ccc2N2CCC[C@H]1C2` [(9S)-N-(pyridin-2-yl)-5-[2-(trifluoromethyl)pyridin-4-yl]-1,6,8-triazatricyclo[7.3.1.0 {2,7}]trideca-2(7),3,5-triene-8-carboxamide], for which, for the setting “Trp peptide assay”, the “TRP Activity (EC1.5)” value is “A (A (EC1.5<1 μM))”. Also, the Emax under setting [1] is above 150%. With `Cn1cc(-c2ccc3c(n2)N(C(=O)Nc2cnccn2)[C@H]2CCN3C2)ccc1=O` [(9S)-5-(1-methyl-6-oxo-1,6-dihydropyridin-3-yl)-N-(pyrazin-2-yl)-1,6,8-triazatricyclo[7.2.1.0^2,7]dodeca-2(7),3,5-triene-8-carboxamide], the “TRP Activity (EC1.5)” value (Trp peptide assay) is listed as “C (C (EC1.5>25 μM))”. Further, the Emax under setting [1] is below 150%.

Consider `O=C(Nc1ccc2c(c1)OCCCO2)N1c2nc(-c3cccc(C(F)(F)F)c3)ccc2N2CC[C@H]1C2` [Example 95], for which the “Tryp AVG EC1.5 (μM)” value (Trp peptide substrate, concentration giving 150% activation of SIRT1) is listed as “A (A (EC1.5<1 μM))”.
